According to patent US20250122182A1 (Isosterix, Inc., priority 2023, published 2025):

Target: Recombinant KAT6A/MOZ (488-778) protein (Homo sapiens (Human), UniProt Q92794)
Test: KAT6A AlphaLISA Inhibition Screening Assay
Assay type: biochemical
Conditions: for Average Kat6A % inhibition @ 1 μM / inhibition at 1 µM: 1 μM test compound; for Average Kat6A % inhibition @ 10 μM / inhibition at 10 µM: 10 μM test compound; for inhibition at 1 µM: read-out: Average Kat6A % inhibition @ 1 μM; for inhibition at 10 µM: read-out: Average Kat6A % inhibition @ 10 μM
Method: The Kat6a inhibitory activity of test compounds was determined using an Alpha Screen-based detection method. The assay reactions were conducted in a volume of 10 μL in Alpha Plate, White 384 well plate (cat #6008280, Perkin Elmer). The enzymatic reactions were performed in assay buffer pH 8.0 (50 mM Tris-HCl, 0.1 mM EDTA, 0.01% Tween-20, 1 mM Dithiothreitol, 0.1% BSA (fatty acid free) and 330 nM TSA (Trichostatin A)). 10 μL reaction volume consisting of 25 nM of Recombinant KAT6A/MOZ (488-778) protein (Active motif, Catalog #81223), 400 nM Acetyl coenzyme A (Catalog #A2056, Sigma), 200 nM of Histone H3 peptide [(amino acids 1-21), biotin-labeled (BPS Biosciences, Catalog #52011)]. Test compounds were screened at different doses starting with 10 μM, 3 fold dilution and 10 point Dose response curve. Enzyme and compounds solution were pre-incubated in assay plate for 60 or 10 min at room temperature then substrate and Acetyl coenzyme A solution were added to the plate. After addition, the plate was sealed with adhesive seals and incubated for 120 minutes at room temperature.
After 120 minutes of incubation, […] of AlphaLISA anti-acetyl-Lysine acceptor beads (Perkin Elmer, Catalog #AL143C) were added to the plate and it was incubated for 60 minutes at room temperature. Then […] of Alpha Streptavidin donor beads (Perkin Elmer, Catalog #6760002S) were added to the plate which was further incubated for 60 minutes at room temperature. After incubation, the alpha signal was recorded by using Perkin Elmer Envision multi-mode reader. Percent inhibition of enzyme activity by test compounds were determined relative to vehicle control.

Chain of Recombinant KAT6A/MOZ (488-778) protein (Q92794 488-778): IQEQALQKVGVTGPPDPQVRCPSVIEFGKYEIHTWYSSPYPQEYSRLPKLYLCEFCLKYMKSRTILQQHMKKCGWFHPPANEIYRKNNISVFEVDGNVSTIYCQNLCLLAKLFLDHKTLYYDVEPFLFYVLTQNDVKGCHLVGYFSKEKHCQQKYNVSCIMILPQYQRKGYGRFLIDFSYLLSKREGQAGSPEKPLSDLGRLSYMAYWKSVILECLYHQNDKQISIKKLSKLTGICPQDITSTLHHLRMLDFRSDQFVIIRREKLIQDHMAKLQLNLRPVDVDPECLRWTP

SMILES	Average Kat6A % inhibition @ 1 μM	Average Kat6A % inhibition @ 10 μM	inhibition at 1 µM	inhibition at 10 µM
COC(=O)NCc1cnn(Cc2cc(OC)c3c(NS(=O)(=O)c4cccc5c(C)ccnc45)noc3c2)c1 [Syn. Ex. 131, methyl ((1-((4-methoxy-3-((4-methylquinoline)-8-sulfonamido)benzo[d]isoxazol-6-yl)methyl)-1H-pyrazol-4-yl)methyl)carbamate]	99%	100%	–	–
COC(=O)NCc1cnn(Cc2cc(OC)c3c(NS(=O)(=O)c4cc5c(cc4OC)CCO5)noc3c2)c1 [Syn. Ex. 126, methyl ((1-((4-methoxy-3-((5-methoxy-2,3-dihydrobenzofuran)-6-sulfonamido)benzo[d]isoxazol-6-yl)methyl)-1H-pyrazol-4-yl)methyl)carbamate]	101%	100%	–	–
C#CC(=O)NCc1cnn(Cc2cc(OC)c3c(NS(=O)(=O)c4cc(CC)ccc4OCC#N)noc3c2)c1 [Syn. Ex. 69, N-((1-((3-((2-(cyanomethoxy)-5-ethylphenyl)sulfonamido)-4-methoxybenzo[d]isoxazol-6-yl)methyl)-1H-pyrazol-4-yl)methyl)propiolamide]	–	–	96%	99%
CC#CC(=O)NCc1cnn(Cc2cc(OC)c3c(NS(=O)(=O)c4cc(OC)ccc4OC)noc3c2)c1 [Syn. Ex. 58, N-((1-((3-((2,5-dimethoxyphenyl)sulfonamido)-4-methoxybenzo[d]isoxazol-6-yl)methyl)-1H-pyrazol-4-yl)methyl)but-2-ynamide]	–	–	91%	97%
CCc1ccc(OC)c(S(=O)(=O)Nc2noc3cc(Cn4cc(CNC(=O)OCCO)cn4)cc(OC)c23)c1 [Syn. Ex. 34, 2-hydroxyethyl ((1-((3-((5-ethyl-2-methoxyphenyl)sulfonamido)-4-methoxybenzo[d]isoxazol-6-yl)methyl)-1H-pyrazol-4-yl)methyl)carbamate]	–	–	86%	100%
C=C(F)C(=O)Nc1ccc(Oc2cc(OC)c3c(NS(=O)(=O)c4cc5c(cc4OC)CCC5)noc3c2)nc1 [Syn. Ex. 144, 2-fluoro-N-(6-((4-methoxy-3-((6-methoxy-2,3-dihydro-1H-indene)-5-sulfonamido)benzo[d]isoxazol-6-yl)oxy)pyridin-3-yl)acrylamide]	101%	99%	–	–
COc1cc2c(NS(=O)(=O)c3cc(C)ccc3OC)noc2cc1Cn1cc(CN)cn1 [Syn. Ex. 150, N-(6-((4-(aminomethyl)-1H-pyrazol-1-yl)methyl)-5-methoxybenzo[d]isoxazol-3-yl)-2-methoxy-5-methylbenzenesulfonamide]	–	–	101%	103%
COc1cc2c(cc1S(=O)(=O)Nc1noc3cc(Cn4cc(CNS(C)(=O)=O)cn4)cc(OC)c13)CCC2 [Syn. Ex. 24, 6-methoxy-N-(4-methoxy-6-((4-(methylsulfonamidomethyl)-1H-pyrazol-1-yl)methyl)benzo[d]isoxazol-3-yl)-2,3-dihydro-1H-indene-5-sulfonamide]	–	–	99%	100%
C#CC(=O)N1Cc2cnn(Cc3cc(OC)c4c(NS(=O)(=O)c5ccc(C#N)cc5OC)noc4c3)c2C1 [Syn. Ex. 26, 4-cyano-2-methoxy-N-(4-methoxy-6-((5-propioloyl-5,6-dihydropyrrolo[3,4-c]pyrazol-1(4H)-yl)methyl)benzo[d]isoxazol-3-yl) benzenesulfonamide]	99%	100%	–	–
CC#CC(=O)NCc1cnn(Cc2cc(OC)c3c(NS(=O)(=O)c4cc5c(cc4OC)CCC5)noc3c2)c1 [Syn. Ex. 29, N-((1-((4-methoxy-3-((6-methoxy-2,3-dihydro-1H-indene)-5-sulfonamido)benzo[d]isoxazol-6-yl)methyl)-1H-pyrazol-4-yl)methyl) but-2-ynamide]	100%	100%	–	–
CC#CC(=O)NCc1cnn(Cc2cc(OC)c3c(NS(=O)(=O)c4cc(C)c(C)cc4OC)noc3c2)c1 [Syn. Ex. 27, N-((1-((4-methoxy-3-((2-methoxy-4,5-dimethylphenyl)sulfonamido)benzo[d]isoxazol-6-yl)methyl)-1H-pyrazol-4-yl)methyl)but-2-ynamide]	–	–	100%	100%

Further lines, results first:

Average Kat6A % inhibition @ 1 μM	Average Kat6A % inhibition @ 10 μM	inhibition at 1 µM	inhibition at 10 µM	SMILES
100%	99%	–	–	COC(=O)NCc1cnn(Cc2cc3onc(NS(=O)(=O)c4cc(C)cc5cccnc45)c3c3c2CCCO3)c1 [Syn. Ex. 132, methyl ((1-((9-((6-methylquinoline)-8-sulfonamido)-3,4-dihydro-2H-chromeno[8,7-d]isoxazol-5-yl)methyl)-1H-pyrazol-4-yl)methyl)carbamate]
–	–	100%	100%	CCc1ccc(OC)c(S(=O)(=O)Nc2noc3cc(Cn4cc(CNC(=O)OC)cn4)c4c(c23)OCCC4)c1 [Syn. Ex. 97, methyl ((1-((9-((5-ethyl-2-methoxyphenyl)sulfonamido)-3,4-dihydro-2H-chromeno[8,7-d]isoxazol-5-yl)methyl)-1H-pyrazol-4-yl)methyl)carbamate]
–	–	83%	100%	C#CC(=O)N1Cc2cn(Cc3cc(OC)c4c(NS(=O)(=O)c5cc(OC)ccc5OC)noc4c3)nc2C1 [Syn. Ex. 5, 2,5-dimethoxy-N-(4-methoxy-6-((5-propioloyl-5,6-dihydropyrrolo[3,4-c]pyrazol-2(4H)-yl)methyl)benzo[d]isoxazol-3-yl)benzenesulfonamide]
–	–	100%	100%	CCc1ccc(OCc2cccnc2)c(S(=O)(=O)Nc2noc3cc(Cn4cc(CNC(=O)OC)cn4)cc(OC)c23)c1 [Syn. Ex. 123, methyl ((1-((3-((5-ethyl-2-(pyridin-3-ylmethoxy)phenyl)sulfonamido)-4-methoxybenzo[d]isoxazol-6-yl)methyl)-1H-pyrazol-4-yl)methyl)carbamate]
–	–	100%	100%	CCc1ccc(OCC(=O)O)c(S(=O)(=O)Nc2noc3cc(Cn4cc(CNC(=O)OC)cn4)cc(OC)c23)c1 [Syn. Ex. 62, 2-(4-ethyl-2-(N-(4-methoxy-6-((4-(((methoxycarbonyl)amino)methyl)-1H-pyrazol-1-yl)methyl)benzo[d]isoxazol-3-yl)sulfamoyl)phenoxy)acetic acid]
–	–	60%	100%	C#CC(=O)NCc1ccc(Oc2cc(OC)c3c(NS(=O)(=O)c4cc(CC)ccc4OC)noc3c2)nc1 [Syn. Ex. 61, N-((6-((3-((5-ethyl-2-methoxyphenyl)sulfonamido)-4-methoxybenzo[d]isoxazol-6-yl)oxy)pyridin-3-yl)methyl)propiolamide]
100%	100%	–	–	CCc1cc(S(=O)(=O)Nc2noc3cc(Cn4cc(CNC(=O)OC)cn4)cc(OC)c23)c(OC)cn1 [Syn. Ex. 120, methyl ((1-((3-((2-ethyl-5-methoxypyridine)-4-sulfonamido)-4-methoxybenzo[d]isoxazol-6-yl)methyl)-1H-pyrazol-4-yl)methyl)carbamate]
–	–	90%	98%	CCc1ccc(OCc2ccccc2)c(S(=O)(=O)Nc2noc3cc(Cn4cc(CNC(=O)OC)cn4)cc(OC)c23)c1 [Syn. Ex. 93, methyl ((1-((3-((2-(benzyloxy)-5-ethylphenyl)sulfonamido)-4-methoxybenzo[d]isoxazol-6-yl)methyl)-1H-pyrazol-4-yl)methyl)carbamate]
–	–	93%	100%	C=CC(=O)NCc1cnn(Cc2cc(OC)c3c(NS(=O)(=O)c4cc(CC)ccc4OC)noc3c2)c1 [Syn. Ex. 42, N-((1-((3-((5-ethyl-2-methoxyphenyl)sulfonamido)-4-methoxybenzo[d]isoxazol-6-yl)methyl)-1H-pyrazol-4-yl)methyl) acrylamide]
–	–	97%	99%	C#CC(=O)NCc1cnc(Oc2cc(OC)c3c(NS(=O)(=O)c4cc(CC)ccc4OC)noc3c2)s1 [Syn. Ex. 103, N-((2-((3-((5-ethyl-2-methoxyphenyl)sulfonamido)-4-methoxybenzo[d]isoxazol-6-yl)oxy)thiazol-5-yl)methyl)propiolamide]
–	–	100%	100%	C=C(F)C(=O)NCc1cnn(Cc2cc(OC)c3c(NS(=O)(=O)c4cc(CC)ccc4OCc4ccccc4)noc3c2)c1 [Syn. Ex. 92, N-((1-((3-((2-(benzyloxy)-5-ethylphenyl)sulfonamido)-4-methoxybenzo[d]isoxazol-6-yl)methyl)-1H-pyrazol-4-yl)methyl)-2-fluoroacrylamide]
–	–	100%	100%	C=C(F)C(=O)NCc1cnn(Cc2cc(OC)c3c(NS(=O)(=O)c4cc(C(C)C)ccc4OC)noc3c2)c1 [Syn. Ex. 59, 2-fluoro-N-((1-((3-((5-isopropyl-2-methoxyphenyl)sulfonamido)-4-methoxybenzo[d]isoxazol-6-yl)methyl)-1H-pyrazol-4-yl)methyl)acrylamide]
